We go through 1 compound from US20080260834A1, “VITAMIN D3 ANALOG LOADED POLYMER FORMULATIONS FOR CANCER AND NEURODEGENERATIVE DISORDERS” (priority 2002, published 2008).

Where two headings read alike, the source gives them in different places.

A word on the EC50: it is the concentration at which the effect is half-maximal. A higher EC50 goes with weaker potency.

The subject of data set [1] is RENCA (renal cell carcinoma). In words: In vitro proliferation assay, RENCA. It is filed as cell-based, murine. As for the experimental part: (§1) All cell lines were grown and propagated in RPMI medium at 37° C. in 5% CO2. Cultured cells were trypsinized and plated in triplicate at 10,000 cells/well in Falcon 24 well tissue culture plates. […] When control wells neared confluence, cell number was determined for each well as an average of two readings on a ZM Coulter Counter Results are expressed as the average cell number for each drug treatment group divided by the average cell number for the drug free control group (designated as % OF CONTROL) vs. the concentration of drug or analog.

A short description of data set [2]: Hypercalcemic toxicity of wafers, intraflank vs intracranial. It is filed as in vivo,  mice. As to conditions: 5 mg pCPP:SA wafer loaded 0.1%; for weight loss: 7 days; for blood ionized calcium levels: day 7. An excerpt:
Animal weights were monitored daily and blood was collected for quantitative ionized calcium analysis via cardiac puncture on day 7 post-implantation.

Data set [3] relates to EMT6 (breast cell carcinoma). As to the kind of experiment: In vitro proliferation assay, EMT6. Type of data set: cell-based, murine. On the procedure:
as §1

For data set [4] the following is noted: cited from earlier work.
Data set [5] concerns B16 melanoma cells. In words: Exposure time dependence study, B16. It is filed as cell-based, murine. As to conditions: 10 μM; exposure 1, 2, 10, 24, 96 hours; counted at 96 hours. On the procedure:
In a series of exposure time dependence studies, B16 melanoma cells were trypsinized, suspended, and plated as before. […] Then at 1, 2, 10, 24, and 96 hours, the drug containing media was removed and replaced with fresh media containing only solvent. […] At the 96 hour time point, all groups were trypsinized and cell number was determined as before.

Data set [6] relates to CT26 (colon carcinoma). In words: In vitro proliferation assay, CT26. As to conditions: at 1000 nM against CT26 (p<0.01, data not shown). Type of data set: cell-based, murine. On the procedure: as §1
A short description of data set [7]: Calcemic activity, daily intraperitoneal injections in mice. It is filed as in vivo, C57/B16 mice. As to conditions: for weight loss: 7 days; for blood ionized calcium: day 7. As for the experimental part:
Twenty-seven C57/B16 mice (n=3 per group), received daily intraperitoneal injections solution containing one of the three drugs at on of the following doses: […] (corresponding to 0.02, 0.2, or 2 mg/day respectively). Nine animals received daily intraperitoneal injections of solvent only to serve as control. Animal weights were monitored daily at the time of injection. On day 7, all animals were sacrificed and blood was collected via cardiac puncture and quantitatively analyzed for ionized calcium content at the Critical Care Lab at Johns Hopkins Hospital.

Data set [8] relates to B16 (malignant melanoma). In words: In vitro proliferation assay, B16. Type of data set: cell-based, murine. On the procedure:
as §1

`C=C1/C(=C\C=C2/CCCC3(C)[C@@H]([C@H](C)CCCC(C)(C)O)CC[C@@H]23)C[C@@H](O)CC1O` (some centres unmarked) [1,25 D3, 1,25-Dihydroxyvitamin D3]: the concentration for a half-maximal effect (EC50) in data set [1] (Mus musculus, Renca) was 153 nM; in data set [3] (Mus musculus, EMT6), 160 nM; in data set [8] (Mus musculus), 15 nM. Further, the antiproliferative activity entry in data set [1] (at 10 nM against RENCA (p<0.03)), in data set [3] (at 100 nM against EMT6 (p<0.01)), in data set [6] and in data set [8] (at 10 nM against B16 (p<0.03)) was “significant antiproliferative activity” in each case. Moreover, the weight loss result in data set [2] (intracranial) is on record as “substantial weight loss”; in data set [2] (intraflank) it was “substantial weight loss”; in data set [4] (120 ng/day i.c.v.) it was “weight loss was observed”; in data set [7] (1 mg/kg/day i.p.) it was “substantial weight loss”; in data set [7] (10 mg/kg/day i.p.) it was “substantial weight loss”. Also, the “blood ionized calcium levels” value in data set [2] (intracranial) and in data set [2] (intraflank) was “dramatic rises in blood ionized calcium levels” in each case. For the same compound, in data set [4] (60 ng/day i.c.v., after 6 days), the serum calcium result is given as “rise in serum calcium”. The “condition of the animals” value is listed as “severely compromised” in data set [4] (240 ng/day i.c.v., by day 6) and “severely compromised” in data set [7] (100 mg/kg/day i.p.). Besides, the “exposure time dependence of antiproliferative activity” value in data set [5] was “exposure time dependent”. Moreover, the blood ionized calcium entry in data set [7] (1 mg/kg/day i.p.) and in data set [7] (10 mg/kg/day i.p.) was “dramatic rises in blood ionized calcium levels” throughout.
